Experimental data reported in PubChem BioAssay AID743457 (The Scripps Research Institute Molecular Screening Center, 2014).
Calls of active or inactive are those of the source.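 Rule for the calls: active = IC50 at or below a set limit; inactive = IC50 above that limit.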

These compounds were tested against Group 3 secretory phospholipase A2 (Homo sapiens) (UniProt Q9NZ20) (assay: human group III sPLA2 inhibitors, dose response, biochemical, QFRET, IC50 (AID 743457)). Details: recombinant hGIII-sPLA2, BODIPY PC-A2 QFRET fluorescence.
Group 3 secretory phospholipase A2 (Homo sapiens), sequence (Q9NZ20 whole entry, looked up): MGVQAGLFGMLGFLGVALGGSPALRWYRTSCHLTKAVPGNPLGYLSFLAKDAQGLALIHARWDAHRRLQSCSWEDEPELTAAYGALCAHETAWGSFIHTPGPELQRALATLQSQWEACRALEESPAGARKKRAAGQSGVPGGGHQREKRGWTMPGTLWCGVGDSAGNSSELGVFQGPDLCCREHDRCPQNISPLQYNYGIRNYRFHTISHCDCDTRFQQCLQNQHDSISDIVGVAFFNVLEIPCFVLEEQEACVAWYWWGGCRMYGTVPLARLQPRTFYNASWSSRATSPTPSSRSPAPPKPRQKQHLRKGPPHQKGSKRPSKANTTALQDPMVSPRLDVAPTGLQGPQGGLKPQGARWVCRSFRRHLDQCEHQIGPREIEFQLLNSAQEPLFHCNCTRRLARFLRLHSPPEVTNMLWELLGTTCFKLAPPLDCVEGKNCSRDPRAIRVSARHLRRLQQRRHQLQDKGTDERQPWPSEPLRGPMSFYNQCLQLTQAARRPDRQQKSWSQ

Compound	IC50
O=C(N/N=C/c1cc(Cl)cc([N+](=O)[O-])c1O)C(O)(c1ccccc1)c1ccccc1	inactive
CCC(C)N1C(=O)/C(=C\c2cc3c4c(c2)CCCN4CCC3)C(=O)NC1=S (stereo not drawn)	inactive
C/C(=N\NC(=O)c1nnn(-c2nonc2N)c1CN(C)c1ccccc1)c1ccccc1O	inactive
Cc1ccccc1C(=O)NNC(=S)NC(=O)c1cccs1	> 40.6 µM (inactive)
CNC(=S)NN=C(C)c1ccc(OC)cc1O	> 122 µM (inactive)
CC(C)CC(=O)NC(=S)NNC(=O)c1ccc(NC(=O)C2CCCCC2)cc1	> 122 µM (inactive)
Cc1ccc2sc(NNC(=O)c3ccc4c(c3)OCCO4)nc2c1C	inactive
COc1ccc(C(=O)NNC(=S)NC(=O)c2cccs2)cc1	inactive
O=C1c2ccccc2C(=O)c2c(NCCCN(CCO)CCO)cccc21	> 122 µM (inactive)
CC(C)(C)c1csc(NNC(=O)c2ccc(Br)cc2)n1	> 122 µM (inactive)
O=[N+]([O-])c1ccc(O)c(N=Cc2sc3ccccc3c2O)c1	> 122 µM (inactive)
C=CCS/C(N)=N\N=C\c1cc(Br)cc([N+](=O)[O-])c1O	> 40.6 µM (inactive)
COc1ccc2nc(Nc3nc4cc5c(cc4s3)OCO5)sc2c1	inactive
COc1ccc(C(=O)NC(=S)NNC(=O)c2c(-c3ccccc3)noc2C)cc1OC	> 122 µM (inactive)
CNC(=S)N/N=C/c1cc(Br)cc(Br)c1O	> 122 µM (inactive)
O=C(CCN1C(=O)/C(=C/c2ccccc2Cl)SC1=S)NNC(=O)c1ccccc1O	inactive
CCCC[n+]1c2ccccc2cc2ccccc21	inactive
C/C(=N\NC(=S)NCC(C)(C)C)c1cc(F)cc(F)c1O	> 122 µM (inactive)
